Reference: PubChem BioAssay (NCI)
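Protocol summary: plate cells (96-well), add compound at 5 concentrations, incubate 48 h, interpolate endpoints linearly. Abbreviation: GI50, concentration required for 50% inhibition of growth. TGI denotes the concentration required for complete inhibition of growth.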

Experiments:
Assay in all cases: NCI tumour cell line growth inhibition, 48 h
[1] = test system: TK-10 renal
[2] = test system: DU-145 prostate
[3] = test system: OVCAR-3 ovarian
[4] = test system: U251 CNS
[5] = test system: OVCAR-8 ovarian
[6] = test system: T-47D breast
[7] = test system: HL-60(TB) leukemia
[8] = test system: A498 renal
[9] = test system: RPMI-8226 leukemia
[10] = test system: EKVX NSCLC
[11] = test system: SW-620 colon
[12] = test system: SK-MEL-28 melanoma
[13] = test system: NCI/ADR-RES ovarian
[14] = test system: SK-MEL-2 melanoma
[15] = test system: ACHN renal
[16] = test system: KM12 colon
[17] = test system: HS 578T breast
[18] = test system: 786-0 renal
[19] = test system: SF-268 CNS
[20] = test system: A549 NSCLC
[21] = test system: SNB-75 CNS
[22] = test system: MDA-MB-435
[23] = test system: LOX IMVI melanoma
[24] = test system: M14 melanoma
[25] = test system: MOLT-4 leukemia
[26] = test system: MCF7 breast
[27] = test system: SK-OV-3 ovarian
[28] = test system: IGROV1 ovarian
[29] = test system: K-562 leukemia
[30] = test system: NCI-H23 lung
[31] = test system: SN12C renal
[32] = test system: PC-3 prostate
[33] = test system: UO-31 renal
[34] = test system: SK-MEL-5 melanoma
[35] = test system: UACC-257 melanoma
[36] = test system: HOP-62 NSCLC
[37] = test system: MDA-MB-231 breast
[38] = test system: NCI-H226 lung
[39] = test system: COLO 205 colon
[40] = test system: OVCAR-4 ovarian
[41] = test system: SF-539 CNS
[42] = test system: OVCAR-5 ovarian
[43] = test system: CAKI-1 renal
[44] = test system: HCT-116 colon
[45] = test system: NCI-H522 lung
[46] = test system: HCC-2998 colon
[47] = test system: SF-295 CNS
[48] = test system: HOP-92 NSCLC
[49] = test system: HT29 colon
[50] = test system: CCRF-CEM leukemia
[51] = test system: RXF 393 renal
[52] = test system: MALME-3M melanoma
[53] = test system: SNB-19 CNS
[54] = test system: HCT-15 colon
[55] = test system: MDA-N
[56] = test system: UACC-62 melanoma
[57] = test system: NCI-H460 lung
[58] = test system: BT-549 breast
[59] = test system: SR leukemia

CCCCCCCCCC(O)CC(=O)c1c(O)cccc1O (stereo unspecified)
TGI [1]: 45.7 µM | TGI [2]: > 100 µM | TGI [3]: 41.9 µM | TGI [4]: > 100 µM | TGI [5]: 38.6 µM | TGI [6]: 71.5 µM | TGI [7]: 57.3 µM | TGI [8]: 88.5 µM | TGI [9]: 45.2 µM | TGI [10]: 45.5 µM | TGI [11]: > 100 µM | TGI [12]: > 100 µM | TGI [13]: 38.5 µM | TGI [14]: 35.7 µM | TGI [15]: 53.7 µM | TGI [16]: 40.8 µM | TGI [17]: 40.8 µM | TGI [18]: 50.4 µM | TGI [19]: 35.9 µM | TGI [20]: 55.1 µM | TGI [21]: 34.9 µM | TGI [22]: 68.1 µM | TGI [23]: 46 µM | TGI [24]: 44.2 µM | TGI [25]: 41.6 µM | TGI [26]: 50.3 µM | TGI [27]: 41.3 µM | TGI [28]: 36.8 µM | TGI [29]: 49.5 µM | TGI [30]: 43.7 µM | TGI [31]: 63.9 µM | TGI [32]: 36.4 µM | TGI [33]: 38.6 µM | TGI [34]: 38 µM | TGI [35]: 38.7 µM | TGI [36]: 33.1 µM | TGI [37]: 46.5 µM | TGI [38]: 34.9 µM | TGI [39]: 91.7 µM | TGI [40]: 35.2 µM | TGI [41]: 40.7 µM | TGI [42]: 35.7 µM | TGI [43]: 44 µM | TGI [44]: 56.7 µM | TGI [45]: 37.9 µM | TGI [46]: 26.8 µM | TGI [47]: 39.1 µM | TGI [48]: 64.8 µM | TGI [49]: 43 µM | TGI [50]: > 100 µM | TGI [51]: 34.8 µM | TGI [52]: 32.3 µM | TGI [53]: 73 µM | TGI [54]: 39.4 µM | TGI [55]: 51.6 µM

Oc1[nH]c(N=C2N=c3ccccc3=N2)c2ccccc12
GI50 [1]: 21 µM | TGI [1]: 55.4 µM | GI50 [2]: 10.3 µM | TGI [2]: 22.6 µM | GI50 [3]: 5.16 µM | TGI [3]: 19.2 µM | GI50 [4]: 3.4 µM | TGI [4]: 42.3 µM | GI50 [5]: 11.4 µM | TGI [5]: 46.4 µM | GI50 [6]: 8.27 µM | TGI [6]: 85.8 µM | GI50 [7]: 13.7 µM | TGI [7]: 52.9 µM | GI50 [8]: 6.31 µM | TGI [8]: 19.9 µM | GI50 [9]: 14.9 µM | TGI [9]: 72.1 µM | GI50 [10]: 4.22 µM | TGI [10]: 52.2 µM | GI50 [11]: 10.6 µM | TGI [11]: 32.4 µM | GI50 [12]: 12.8 µM | TGI [12]: 33.6 µM | GI50 [13]: 3.87 µM | TGI [13]: 30.1 µM | GI50 [14]: 11.1 µM | TGI [14]: 29.7 µM | GI50 [56]: 11.8 µM | TGI [56]: 36 µM | GI50 [15]: 12.3 µM | TGI [15]: 29 µM | GI50 [16]: 11.5 µM | TGI [16]: 42.9 µM | GI50 [17]: 10.7 µM | TGI [17]: 39.8 µM | GI50 [18]: 17.2 µM | TGI [18]: 39.6 µM | GI50 [19]: 11.6 µM | TGI [19]: 50.8 µM | GI50 [20]: 8.67 µM | TGI [20]: 41.1 µM | GI50 [21]: 10.9 µM | TGI [21]: 31.5 µM | GI50 [22]: 12.4 µM | TGI [22]: 69.4 µM | GI50 [23]: 4.78 µM | TGI [23]: 24.9 µM | GI50 [24]: 12.2 µM | TGI [24]: 38.8 µM | GI50 [25]: 3.28 µM | TGI [25]: 29.5 µM | GI50 [26]: 2.65 µM | TGI [26]: 23.7 µM | GI50 [27]: 12.1 µM | TGI [27]: 27.7 µM | GI50 [28]: 1.28 µM | TGI [28]: 33.7 µM | GI50 [29]: 9.86 µM | TGI [29]: > 100 µM | GI50 [30]: 7.29 µM | TGI [30]: 52.6 µM | GI50 [31]: 12.8 µM | TGI [31]: 36.7 µM | GI50 [32]: 6.34 µM | TGI [32]: 73.8 µM | GI50 [33]: 4.58 µM | TGI [33]: 18.6 µM | GI50 [34]: 8.57 µM | TGI [34]: > 100 µM | GI50 [35]: 13.7 µM | TGI [35]: > 100 µM | GI50 [36]: 10.1 µM | TGI [36]: 22.9 µM | GI50 [37]: 15.2 µM | TGI [37]: 46.2 µM | GI50 [38]: 10.4 µM | TGI [38]: 30 µM | GI50 [39]: 6.39 µM | TGI [39]: 20.5 µM | GI50 [40]: 6.84 µM | TGI [40]: 24 µM | GI50 [41]: 14.3 µM | TGI [41]: 40.2 µM | GI50 [42]: 20.4 µM | TGI [42]: 68.1 µM | GI50 [43]: 2.95 µM | TGI [43]: 21.7 µM | GI50 [44]: 7.3 µM | TGI [44]: 29.5 µM | GI50 [45]: 11.2 µM | TGI [45]: 41.6 µM | GI50 [46]: 17.4 µM | TGI [46]: > 100 µM | GI50 [47]: 3.64 µM | TGI [47]: 26 µM | GI50 [48]: 15 µM | TGI [48]: 49 µM | GI50 [49]: 9.18 µM | TGI [49]: 39.7 µM | GI50 [50]: 1.48 µM | TGI [50]: 27.8 µM | GI50 [51]: 8.85 µM | TGI [51]: 22.2 µM | GI50 [57]: 3.01 µM | TGI [57]: 21 µM | GI50 [52]: 9.69 µM | TGI [52]: 37.6 µM | GI50 [53]: 15.7 µM | TGI [53]: 93 µM | GI50 [54]: 3.54 µM | TGI [54]: > 100 µM | GI50 [58]: 16.7 µM | TGI [58]: 54.5 µM | GI50 [59]: 5.46 µM | TGI [59]: 41.6 µM
